# Target: human IDO protein (Homo sapiens (Human), UniProt P14902)
# Assay: IDO biochemical coupled assay (formamidase, Ehrlich's reagent)
# Conditions: 0.17 μM human IDO, 120 min pre-incubation, 45 μM L-Trp; read-out: hIDO biochemical assay pIC50 (converted)
# Description: (§1) For REF1-REF3 and Compounds 1-11, two different types of assay were employed: 1. An IDO biochemical coupled assay which utilised recombinantly produced and purified IDO enzyme in combination with the enzyme formamidase. This coupled enzyme system allowed conversion of N-formylkynurenine produced by IDO activity to kynurenine which was then quantified by fluorescence following addition of Erhlich's Reagent. 2. A cell-based assay for detecting the effect of test compounds on kynurenine production in cancer cells. This assay utilised cancer cells which expressed IDO and as such was used as a means of testing compound activity at the enzyme in a cell-based context. The protocols for these are set out below.
# 0.17 μM of human IDO protein was pre-incubated for 120 min at RT with test compounds in the presence of 50 mM KPO4, pH 7.0, 0.5 mM EDTA, 0.5 mM EGTA, 0.05% Triton X-100, 20 mM ascorbate, 500 U/ml catalase, 10 μM methylene blue at RT in a 384 well plate. 0.05 μg/μl kynurenine formamidase and 45 μM L-tryptophan (L-Trp) were added and the assays were incubated at RT for 40 min. Assays were stopped and the level of kynurenine was determined by incubation with Ehrlich's reagent to a final concentration of 1.33% at RT for 5 min. Fluorescence intensity was read at 475 nm/530 nm.
# human IDO protein, sequence (P14902 whole entry): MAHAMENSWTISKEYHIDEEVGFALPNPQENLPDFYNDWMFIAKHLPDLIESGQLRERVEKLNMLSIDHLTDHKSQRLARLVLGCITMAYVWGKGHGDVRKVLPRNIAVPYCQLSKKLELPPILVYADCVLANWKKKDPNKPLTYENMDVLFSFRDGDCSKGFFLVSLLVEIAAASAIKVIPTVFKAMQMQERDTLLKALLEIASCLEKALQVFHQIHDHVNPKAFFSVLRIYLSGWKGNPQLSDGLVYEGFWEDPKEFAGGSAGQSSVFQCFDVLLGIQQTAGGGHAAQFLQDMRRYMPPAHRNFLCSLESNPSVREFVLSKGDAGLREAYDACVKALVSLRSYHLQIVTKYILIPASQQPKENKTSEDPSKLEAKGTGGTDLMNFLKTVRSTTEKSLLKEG
row,IC50,Compound
1,398 nM,"C[C@H]1C[C@@]1(NC(=O)c1cc2cc(Br)ccc2[nH]1)c1cnn(C)c1 (racemic) [Compound 2, racemic]"

# Target: hIDO1 (Homo sapiens (Human), UniProt P14902)
# Assay: IDO1 cellular assay in HEK293 cells transiently expressing hIDO1
# Assay type: cell-based
# Conditions: HEK293 cell line transiently expressing hIDO1, n=1
# Experimental: Compounds to be tested were serially diluted in ten 3-fold steps in DMSO starting from 10 mM DMSO stocks. Compound dilutions or DMSO alone were then dispensed from the dilution plate into a Greiner black 384-well assay plate (catalog #781086) using an Echo 550 acoustic liquid handler (Labcyte).
# HEK293 cell pellets were resuspended to 5×10^5 cells/mL in complete HEK293 culture media (89% DMEM, 10% FBS, 1% penicillin/streptomycin). Suspended cells (2 mL) were dispensed into each well of a 6-well Corning plate (Catalog#3516). Cells were allowed to attach and were incubated for 20 hours at 37 degrees Celsius in a 5% CO2 incubator. […]
# Media was removed from the cells which were then washed with 2 mL Dulbecco's phosphate-buffered saline (DPBS). […] Plates were incubated at 37 degrees in a 5% CO2 incubator overnight to develop fluorescence. […] The resulting fluorescence was measured in an Envision plate reader (Perkin Elmer) with a 400/25 nm excitation filter and an 510/20 nm emission filter.
# The fluorescence intensity of each well was corrected for the background observed in wells with untransfected cells and was expressed as a fraction of the intensity observed in wells of IDO1 transfected cells and DMSO only. Potencies were calculated by […] to the four parameter logistic IC50 equation.
# hIDO1, sequence (P14902 whole entry): as above
row,IC50,Compound
1,202 nM,"C[C@@H]1C[C@]1(NC(=O)c1cc2cc(C#N)ccc2[nH]1)c1cnn(C)c1 (stereo in doubt) [Compound 12, 5-cyano-N-((1R,2R)-2-methyl-1-(1-methyl-1H-pyrazol-4-yl)cyclopropyl)-1H-indole-2-carboxamide]"

# Target: IDO (SKOV-3 cells) (Homo sapiens (Human), UniProt P14902)
# Assay: IDO cell-based assay (kynurenine production in IFNγ-induced SKOV-3 cells)
# Conditions: IFNγ 500 ng/ml, 500 μM L-Trp, 48 h, read-out: pIC50, IDO cellular assay (SKOV3) (converted)
# Description: as §1
# SKOV-3 ovary adenocarcinoma (ATCC) cells were grown in McCoys 5A+L-glutamax medium supplemented with 15% foetal bovine serum. On the day of assay, cells were detached using trypsin-EDTA (0.25% v/v), re-suspended in assay media (RPMI 1640 phenol red free+L-glutamine supplemented with 10% dialysed foetal bovine serum). SKOV-3 cells were seeded at 40K cells per well into 96-well plates containing test samples/vehicle control together with 500 μM L-Trp. Cells were then incubated for 48 h at 37° C. 5% CO2. IFNγ was also added at 500 ng/ml for the 48 h incubation in order to induce expression of IDO. Plates were centrifuged and the supernatant was removed and incubated for 5 min in the presence of 1% Erhlich's reagent. Kynurenine levels were then quantified by measuring absorbance at 490 nm.
# IDO (SKOV-3 cells), sequence (P14902 whole entry): as above
row,Compound,IC50
1,"C[C@H]1C[C@@]1(NC(=O)c1cc2cc(Br)ccc2[nH]1)c1cnn(C)c1 (racemic) [Compound 2, racemic]",31.6 nM
2,"C[C@H]1C[C@@]1(NC(=O)c1cc2cc(C#N)ccc2[nH]1)c1cnn(-c2ccccc2)c1 (single isomer, unassigned) [Compound 9, enantiomer 1]",77.6 nM
3,"C[C@H]1C[C@@]1(NC(=O)c1cc2cc(Cl)ccc2[nH]1)c1cnn(-c2ccc(F)cc2)c1 (single isomer, unassigned) [Compound 11, enantiomer 2]",10 nM
4,CCc1nn(C)cc1C1(NC(=O)c2cc3cc(Cl)ccc3[nH]2)CC1 [Compound 3],89.1 nM
5,CC(C)c1nn(C)cc1C1(NC(=O)c2cc3cc(Cl)ccc3[nH]2)CC1 [Compound 4],87.1 nM
6,Cn1cc(C2(NC(=O)c3cc4cc(Br)cc(F)c4[nH]3)CC2)cn1 [Compound 6],83.2 nM
7,"CCn1cc(C2(NC(=O)c3cc4cc(Cl)ccc4[nH]3)CC2)cn1 [REF 2, reference compound]",186 nM
8,"Cn1cc(C2(NC(=O)c3cc4cc(Br)ccc4[nH]3)CC2)cn1 [REF 3, reference compound]",182 nM

# More lines, now with the values ahead:
row,IC50,Compound
1,43.7 nM,"C[C@H]1C[C@@]1(NC(=O)c1cc2cc(C#N)ccc2[nH]1)c1cnn(-c2ccccc2)c1 (single isomer, unassigned) [Compound 9, enantiomer 2]"
2,34.7 nM,"C[C@H]1C[C@@]1(NC(=O)c1cc2cc(Cl)ccc2[nH]1)c1cnn(-c2ccc(Cl)cc2)c1 (single isomer, unassigned) [Compound 10, enantiomer 1]"
3,11.7 nM,"C[C@H]1C[C@@]1(NC(=O)c1cc2cc(Cl)ccc2[nH]1)c1cnn(-c2ccc(Cl)cc2)c1 (single isomer, unassigned) [Compound 10, enantiomer 2]"
4,28.2 nM,"C[C@H]1C[C@@]1(NC(=O)c1cc2cc(Cl)ccc2[nH]1)c1cnn(-c2ccc(F)cc2)c1 (single isomer, unassigned) [Compound 11, enantiomer 1]"
5,91.2 nM,O=C(NC1(c2cnn(-c3ccccc3)c2)CC1)c1cc2cc(Cl)ccc2[nH]1 [Compound 5]
6,126 nM,"Cn1cc(C2(NC(=O)c3cc4cc(Cl)ccc4[nH]3)CC2)cn1 [REF 1, reference compound]"

# From patent publication US10336731B2, “Substituted 1H-indole-2-carboxamide compounds as indoleamine-2,3-dioxygenase inhibitors” (Merck Sharp & Dohme Corp., priority 2015, dated 2019)
